The target in this assay is PIK3CA (human) (UniProt P42336). Description: Assessment of PIK3CA Kinase Activity.
Sequence of PIK3CA (human) (P42336 whole entry, looked up): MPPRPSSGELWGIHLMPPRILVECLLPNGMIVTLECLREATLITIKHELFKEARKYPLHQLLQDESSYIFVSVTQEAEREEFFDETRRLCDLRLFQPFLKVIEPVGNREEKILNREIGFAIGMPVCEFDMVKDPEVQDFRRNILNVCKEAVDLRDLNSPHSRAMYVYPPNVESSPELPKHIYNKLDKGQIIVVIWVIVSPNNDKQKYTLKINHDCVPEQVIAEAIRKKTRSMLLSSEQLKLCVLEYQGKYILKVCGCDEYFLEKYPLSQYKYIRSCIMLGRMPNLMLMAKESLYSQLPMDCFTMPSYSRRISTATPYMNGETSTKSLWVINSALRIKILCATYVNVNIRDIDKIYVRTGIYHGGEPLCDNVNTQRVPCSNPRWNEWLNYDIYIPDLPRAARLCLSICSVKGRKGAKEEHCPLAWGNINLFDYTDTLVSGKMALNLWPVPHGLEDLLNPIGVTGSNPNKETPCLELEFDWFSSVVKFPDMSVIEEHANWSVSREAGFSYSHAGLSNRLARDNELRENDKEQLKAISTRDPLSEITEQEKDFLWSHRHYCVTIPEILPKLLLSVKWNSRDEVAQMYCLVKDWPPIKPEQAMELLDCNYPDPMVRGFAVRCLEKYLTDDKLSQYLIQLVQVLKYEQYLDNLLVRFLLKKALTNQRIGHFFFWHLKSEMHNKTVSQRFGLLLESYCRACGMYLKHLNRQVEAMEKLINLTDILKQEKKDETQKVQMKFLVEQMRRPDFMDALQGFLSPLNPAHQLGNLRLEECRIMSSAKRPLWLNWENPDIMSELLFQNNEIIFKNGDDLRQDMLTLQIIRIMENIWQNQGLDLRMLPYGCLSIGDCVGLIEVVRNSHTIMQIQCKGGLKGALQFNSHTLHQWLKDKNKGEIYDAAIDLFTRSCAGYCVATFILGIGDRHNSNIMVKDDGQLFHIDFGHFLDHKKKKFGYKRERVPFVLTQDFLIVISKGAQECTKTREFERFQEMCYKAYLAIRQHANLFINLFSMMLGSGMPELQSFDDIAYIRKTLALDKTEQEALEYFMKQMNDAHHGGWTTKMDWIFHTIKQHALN

Consider `CC(O)c1ccc(-c2ccc3c(N4CCOCC4)nc(-c4ccc(NC(=O)Nc5ccc(C(=O)N(C)C)cc5)cc4)nc3c2)o1` (stereo unspecified), for which the IC50 was less than 50 nM.

As to `Cc1ccncc1-c1ccc2c(N3CCOCC3)nc(-c3ccc(NC(=O)Nc4ccc(C(=O)N5CCC(N(C)C)CC5)cc4)cc3)nc2c1`, the IC50 is less than 50 nM.

`COc1ccc(-c2ccc3c(N4CCOCC4)nc(-c4ccc(NC(=O)Nc5ccc(C(=O)N(C)C)c(F)c5)cc4)nc3c2)cn1` came in with an IC50 of 50 to 200 nM.

For the molecule `CN(C)C(=O)c1ccc(NC(=O)Nc2ccc(-c3nc(N4CCOCC4)c4cc(F)c(-c5cncnc5)cc4n3)cc2)c(F)c1`, the IC50 lay within 50 to 200 nM.

`Cc1ccc(-c2ccc3c(N4CCOCC4)nc(-c4ccc(NC(=O)Nc5ccc(C(=O)N(C)C)nc5)c(F)c4)nc3c2)o1` gave a concentration for half-maximal inhibition (IC50) of 50 to 200 nM.

`CN(C)C(=O)c1ccc(NC(=O)Nc2ccc(-c3nc(N4CCOCC4)c4ccc(-c5cnn(C)c5)cc4n3)cn2)cc1` displayed an IC50 of less than 50 nM.

On to `CN(C)C(=O)c1ccc(NC(=O)Nc2ccc(-c3nc(N4CCOCC4)c4ncc(-c5cccnc5)cc4n3)cc2)cc1`, for which the IC50 is less than 50 nM.

The molecule `CN(C)C(=O)c1ccc(NC(=O)Nc2ccc(-c3nc(N4CCOCC4)c4ncc(-c5cnc(N)nc5)cc4n3)cc2)cc1` gave an IC50 of less than 50 nM.

Molecule `CN(C)C(=O)c1ccc(NC(=O)Nc2ccc(-c3nc(N4CCOCC4)c4cc(F)c(-c5cncnc5)cc4n3)c(F)c2)cc1` returned an IC50 of 50 to 200 nM.

`CN(C)C(=O)c1ccc(NC(=O)Nc2ccc(-c3nc(N4CCOCC4)c4ccc(-c5cnn(C)c5)cc4n3)cc2)cc1` yielded an IC50 of less than 50 nM.

In turn, `CN(C)C(=O)c1ccc(NC(=O)Nc2ccc(-c3nc(N4CCOCC4)c4ncc(-c5cnn(C)c5)cc4n3)cc2)c(F)c1` registered an IC50 of less than 50 nM.

In turn, `CN(C)C(=O)c1ccc(NC(=O)Nc2ccc(-c3nc(N4CCOCC4)c4cc(F)c(-c5cncnc5)cc4n3)cn2)cc1` displayed an IC50 of less than 50 nM.

The molecule `CN1CCN(C(=O)c2ccc(NC(=O)Nc3ccc(-c4nc(N5CCOCC5)c5ncc(-c6cnn(C)c6)cc5n4)cc3)cc2)CC1` displayed an IC50 of less than 50 nM.

The molecule `CN1CCN(C(=O)c2ccc(NC(=O)Nc3ccc(-c4nc(N5CCOCC5)c5ccc(-c6cccnc6)cc5n4)cc3)cc2)CC1` displayed a half-inhibitory concentration (IC50) of less than 50 nM.

`CN(C)C(=O)c1ccc(NC(=O)Nc2ccc(-c3nc(N4CCOCC4)c4ccc(-c5ccccn5)cc4n3)cc2)c(F)c1` showed a half-maximal inhibitory concentration (IC50) of less than 50 nM.

`Cc1noc(C)c1-c1cc2nc(-c3ccc(NC(=O)Nc4ccc(C(=O)N(C)C)cc4)cc3)nc(N3CCOCC3)c2cc1F` displayed an IC50 of 50 to 200 nM.

The molecule `COc1ccc2c(N3CCOCC3)nc(-c3ccc(NC(=O)Nc4ccc(C(=O)N(C)C)cc4)cc3)nc2c1` returned an IC50 of less than 50 nM.

In turn, `CN(C)C(=O)c1ccc(NC(=O)Nc2ccc(-c3nc(N4CCOCC4)c4cc(F)c(-c5cccnc5)cc4n3)cc2F)cc1` showed an IC50 of 50 to 200 nM.

On to `CC(O)c1ccc(-c2cnc3c(N4CCOCC4)nc(-c4ccc(NC(=O)Nc5ccc(C(=O)N(C)C)cc5)c(F)c4)nc3c2)o1` (stereo unspecified), for which the IC50 was less than 50 nM.

Take `COc1cccc(-c2ccc3c(N4CCOCC4)nc(-c4ccc(NC(=O)Nc5ccc(C(=O)N(C)C)cc5)cc4)nc3c2)c1`: the IC50 lay in the range of 50 to 200 nM.

With `Cc1ccc(-c2ccc3c(N4CCOCC4)nc(-c4ccc(NC(=O)Nc5ccc(C(=O)N(C)C)cc5)cc4F)nc3c2)cn1`, the IC50 is less than 50 nM.

Take `CN(C)C(=O)c1ccc(NC(=O)Nc2ccc(-c3nc(N4CCOCC4)c4ncc(-c5cnc(N)nc5)cc4n3)cc2F)cc1`: the concentration for half-maximal inhibition (IC50) was less than 50 nM.

Take `COc1ccc(-c2ccc3c(N4CCOCC4)nc(-c4ccc(NC(=O)Nc5ccc(C(=O)N(C)C)cc5)c(F)c4)nc3c2)cn1`: the half-maximal inhibitory concentration (IC50) fell in the range of 50 to 200 nM.

The molecule `CN(C)C(=O)c1ccc(NC(=O)Nc2ccc(-c3nc(N4CCOCC4)c4ncc(-c5cnn(C)c5)cc4n3)c(F)c2F)cc1` came in with an IC50 of less than 50 nM.

As to `CN(C)C(=O)c1ccc(NC(=O)Nc2ccc(-c3nc(N4CCOCC4)c4ccc(-c5cccc(S(C)(=O)=O)c5)cc4n3)cc2F)cc1`, the IC50 is less than 50 nM.

`N[C@H]1CCN(C(=O)c2ccc(NC(=O)Nc3ccc(-c4nc(N5CCOCC5)c5ccc(-c6cncnc6)cc5n4)cc3)cc2)C1` displayed an IC50 of less than 50 nM.

Turning to `CN(C)C(=O)c1ccc(NC(=O)Nc2ccc(-c3nc(N4CCOCC4)c4ccc(-c5cncc(F)c5)cc4n3)cc2)cc1`, the half-maximal inhibitory concentration (IC50) was less than 50 nM.

`CN(C)C(=O)c1ccc(NC(=O)Nc2ccc(-c3nc(N4CCOCC4)c4ccc(-c5cccnc5)cc4n3)cc2)cc1` gave a 50% inhibitory concentration (IC50) of less than 50 nM.

Regarding `N[C@@H]1CCN(C(=O)c2ccc(NC(=O)Nc3ccc(-c4nc(N5CCOCC5)c5ccc(-c6cncnc6)cc5n4)cc3)cc2)C1`, the IC50 is less than 50 nM.

Regarding `CN(C)CCNC(=O)c1ccc(NC(=O)Nc2ccc(-c3nc(N4CCOCC4)c4ccc(-c5cncnc5)cc4n3)cc2F)cc1`, the IC50 was less than 50 nM.

Regarding `CN(C)CCNC(=O)c1ccc(NC(=O)Nc2ccc(-c3nc(N4CCOCC4)c4ccc(-c5cncnc5)cc4n3)cc2)cc1`, the IC50 was 50 to 200 nM.

For the molecule `CNC(=O)c1ccc(NC(=O)Nc2ccc(-c3nc(N4CCOCC4)c4ncc(-c5cnn(C)c5)cc4n3)cc2)cc1`, the IC50 was less than 50 nM.

With `CN(C)C1CCN(C(=O)c2ccc(NC(=O)Nc3ccc(-c4nc(N5CCOCC5)c5ncc(-c6cnn(C)c6)cc5n4)cc3)cc2)CC1`, the IC50 is less than 50 nM.

Take `CN(C)C(=O)c1ccc(NC(=O)Nc2ccc(-c3nc(N4CCOCC4)c4ccc(-c5ccco5)cc4n3)c(F)c2)cc1`: the IC50 was 50 to 200 nM.

Consider `COc1ccc(-c2ccc3c(N4CCOCC4)nc(-c4ccc(NC(=O)Nc5ccc(C(=O)N(C)C)cc5)cc4F)nc3c2)cn1`, for which the IC50 was 50 to 200 nM.

The molecule `CN(C)C(=O)c1ccc(NC(=O)Nc2ccc(-c3nc(N4CCOCC4)c4ncc(-c5cccnc5F)cc4n3)cc2F)cc1` came in with an IC50 of less than 50 nM.

Turning to `CN(C)C(=O)c1ccc(NC(=O)Nc2ccc(-c3nc(N4CCOCC4)c4ncc(-c5cccc(S(C)(=O)=O)c5)cc4n3)cc2)cc1`, the IC50 was less than 50 nM.

Consider `CN(C)C(=O)c1ccc(NC(=O)Nc2ccc(-c3nc(N4CCOCC4)c4ccc(-c5ccc(C#N)o5)cc4n3)cc2)cc1`, for which the IC50 was less than 50 nM.

Molecule `CN(C)C(=O)c1ccc(NC(=O)Nc2ccc(-c3nc(N4CCOCC4)c4ccc(-c5ccc(CO)o5)cc4n3)cc2F)cc1` showed an IC50 of less than 50 nM.

In the case of `CNC(=O)c1ccc(NC(=O)Nc2ccc(-c3nc(N4CCOCC4)c4ccc(-c5cncnc5)cc4n3)cc2)cc1`, the IC50 was 50 to 200 nM.

Take `CN(C)C(=O)c1ccc(NC(=O)Nc2ccc(-c3nc(N4CCOCC4)c4cc(F)c(-c5cccnc5)cc4n3)cc2)c(F)c1`: the IC50 is less than 50 nM.

Consider `CN(C)C(=O)c1ccc(NC(=O)Nc2ccc(-c3nc(N4CCOCC4)c4ccc(-c5cccnc5F)cc4n3)cc2)cc1F`, for which the IC50 was 50 to 200 nM.

As to `CN(C)C(=O)c1ccc(NC(=O)Nc2ccc(-c3nc(N4CCOCC4)c4cccc(-c5ccc(F)nc5)c4n3)cc2)cc1`, the IC50 was 50 to 200 nM.

For the molecule `Cc1ccc(-c2ccc3c(N4CCOCC4)nc(-c4ccc(NC(=O)Nc5ccc(C(=O)N(C)C)cc5)cc4)nc3c2)cn1`, the IC50 is less than 50 nM.

`CN(C)C(=O)c1ccc(NC(=O)Nc2ccc(-c3nc(N4CCOCC4)c4ccc(-c5ccccn5)cc4n3)cc2)cc1F`: the IC50 is less than 50 nM.

For the molecule `CN(C)C(=O)c1ccc(NC(=O)Nc2ccc(-c3nc(N4CCOCC4)c4ccc(-c5ccnnc5)cc4n3)cc2F)cc1`, the IC50 fell in the range of 50 to 200 nM.

Molecule `Cc1ccncc1-c1cnc2c(N3CCOCC3)nc(-c3ccc(NC(=O)Nc4ccc(C(=O)N(C)C)cc4)c(F)c3)nc2c1` yielded an IC50 of 50 to 200 nM.

Consider `CN(C)C(=O)c1ccc(NC(=O)Nc2ccc(-c3nc(N4CCOCC4)c4ccc(-c5cncnc5)cc4n3)c(F)c2F)cc1`, for which the IC50 was in the range of 50 to 200 nM.

For `Cc1ncccc1-c1ccc2c(N3CCOCC3)nc(-c3ccc(NC(=O)Nc4ccc(C(=O)N(C)C)cc4)cc3)nc2c1`, the IC50 is less than 50 nM.

In turn, `CN1CCN(C(=O)c2ccc(NC(=O)Nc3ccc(-c4nc(N5CCOCC5)c5ccc(-c6ccncc6)cc5n4)cc3)cc2)CC1` registered an IC50 of less than 50 nM.

Regarding `CC(O)c1ccc(-c2ccc3c(N4CCOCC4)nc(-c4ccc(NC(=O)Nc5ccc(C(=O)N(C)C)cc5)cc4F)nc3c2)o1` (stereo unspecified), the IC50 was in the range of 50 to 200 nM.

`Cc1ccc(-c2ccc3c(N4CCOCC4)nc(-c4ccc(NC(=O)Nc5ccc(C(=O)N(C)C)nc5)nc4)nc3c2)o1` returned an IC50 of less than 50 nM.

For `CN(C)C(=O)c1ccc(NC(=O)Nc2ccc(-c3nc(N4CCOCC4)c4cc(F)c(-c5cnn(C)c5)cc4n3)cc2F)cc1`, the IC50 was in the range of 50 to 200 nM.

For the molecule `CN(C)C(=O)c1ccc(NC(=O)Nc2ccc(-c3nc(N4CCOCC4)c4ccc(-c5ccnc(F)c5)cc4n3)cc2)cc1`, the half-inhibitory concentration (IC50) was less than 50 nM.

With `CC1CN(c2nc(-c3ccc(NC(=O)Nc4ccc(C(=O)N(C)C)cc4)cc3)nc3cc(-c4cncnc4)ccc23)CCO1` (stereo unspecified), the IC50 was less than 50 nM.

Molecule `CN(C)C(=O)c1ccc(NC(=O)Nc2ccc(-c3nc(N4CCOCC4)c4cccc(-c5cccc(O)c5)c4n3)cc2)cc1` returned an IC50 of 50 to 200 nM.

In the case of `CN1CCN(C(=O)c2ccc(NC(=O)Nc3ccc(-c4nc(N5CCOCC5)c5cc(F)c(-c6cccnc6)cc5n4)cc3)cc2)CC1`, the IC50 was less than 50 nM.

Turning to `Cc1ccc(-c2ccc3c(N4CCOCC4)nc(-c4ccc(NC(=O)Nc5ccc(C(=O)N6CC[C@@H](N(C)C)C6)cc5)cc4)nc3c2)o1`, the IC50 fell in the range of 50 to 200 nM.

With `CN(C)C(=O)c1ccc(NC(=O)Nc2ccc(-c3nc(N4CCOCC4)c4ccc(-c5cnn(C)c5)cc4n3)cn2)c(F)c1`, the IC50 was less than 50 nM.

For the molecule `CN(C)C(=O)c1ccc(NC(=O)Nc2ccc(-c3nc(N4CCOCC4)c4ccc(-c5cccnc5)cc4n3)c(F)c2)cc1`, the half-maximal inhibitory concentration (IC50) is less than 50 nM.

In the case of `COc1ncc(-c2cnc3c(N4CCOCC4)nc(-c4ccc(NC(=O)Nc5ccc(C(=O)N(C)C)cc5F)cc4)nc3c2)cn1`, the IC50 was less than 50 nM.

In turn, `CN1CCN(C(=O)c2ccc(NC(=O)Nc3ccc(-c4nc(N5CCOCC5)c5ccc(-c6cccnc6F)cc5n4)cc3)cc2)CC1` had an IC50 of less than 50 nM.

Take `CN(C)C(=O)c1ccc(NC(=O)Nc2ccc(-c3nc(N4CCOCC4)c4ccc(-c5cccc(S(C)(=O)=O)c5)cc4n3)cc2)cn1`: the IC50 is 50 to 200 nM.

Turning to `CN(C)CC(=O)Nc1cncc(-c2ccc3c(N4CCOCC4)nc(-c4ccc(NC(=O)Nc5ccc(C(=O)N(C)C)cc5)cc4)nc3c2)c1`, the IC50 is less than 50 nM.

With `COc1ncccc1-c1ccc2c(N3CCOCC3)nc(-c3ccc(NC(=O)Nc4ccc(C(=O)N(C)C)cc4)cc3)nc2c1`, the IC50 was less than 50 nM.

Regarding `CN(C)C(=O)c1ccc(NC(=O)Nc2ccc(-c3nc(N4CCOCC4)c4ncc(-c5cccnc5F)cc4n3)cc2)cc1F`, the IC50 is less than 50 nM.

(Values after the Kinase Knowledgebase extract (Sharma et al. 2016).)
